Target: T1, PrP^C (cellular prion protein) (Mus musculus, UniProt P04925)
T1 construct: gene Prnp
Type: binding

T1 sequence (P04925 23-230 limits assumed): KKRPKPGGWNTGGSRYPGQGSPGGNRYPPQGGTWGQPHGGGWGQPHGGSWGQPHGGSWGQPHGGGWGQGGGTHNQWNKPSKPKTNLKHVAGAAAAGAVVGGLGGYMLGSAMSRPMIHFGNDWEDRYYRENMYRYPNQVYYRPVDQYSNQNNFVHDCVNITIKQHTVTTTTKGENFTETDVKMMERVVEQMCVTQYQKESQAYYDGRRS

For `C[n+]1ccc(C2=C3C=CC(=N3)C(c3cc[n+](C)cc3)=c3ccc4[n]3[Fe+][n]3c2ccc3C(c2cc[n+](C)cc2)=C2C=CC(=N2)C=4c2cc[n+](C)cc2)cc1` [Fe(III)-TMPyP], the Kd was 1.21 µM.

Source: PMC4791597 (Scientific Reports, 2016)
